“Also recorded” adds a separate entry of the source.
Molecular target: SUD-NM / TRF2 G4 interaction (Severe acute respiratory syndrome coronavirus 2, UniProt P0DTD1)
Assay type: binding, SARS-CoV-2
Conditions: His-SUD-NM 10 nM, biotinylated TRF2 G4 50 nM, TMP 100 to 500 nM

Cc1cc2cc3c(C)cc(=O)oc3c(C)c2o1 [TMP, trimethyl psoralen]
Inhibition of the SUD/G4 interaction (in words): No inhibition; also recorded: does not inhibit

Reference: publication PMC8287907 (Nucleic Acids Research, 2021)
